In patent US20230241056A1, “PHARMACEUTICAL COMPOSITION FOR TREATING MACULAR DEGENERATION INCLUDING IMIDAZOLINE DERIVATIVE COMPOUND AS ACTIVE INGREDIENT” (FUSION BIOTECHNOLOGY CO., LTD., priority 2021, published 2023):

Columns and labels:
[1] = system: Doxorubicin-treated senescent cells (SnCs) and non-senescent cells (ARPE-19); test: Selective killing of senescent cells, propidium iodide staining; assay type: cell-based, human; settings: PI staining
Description: To determine whether Nutlin-3 selectively killed senescent cells, the cells were treated with Nutlin-3 as follows and stained with propidium iodide.
Doxorubicin-treated senescent cells (SnCs) grown in the 24-well plate of Example 1 and non-senescent cells (non-SnCs) were treated with Nutlin-3 at different concentrations. After 24 hours, the medium was removed, and a medium including propidium iodide (PI, BD Biosciences, 51-66211E, 1.5 ug/ml) and Hoechst 33342 (Invitrogen, H1399, 1 ug/ml) was added to each well. After 30 minutes, images were obtained using an ultra-high-resolution confocal laser scanning microscope (Carl Zeiss, LSM 800).

p53 = p53 overexpression induction, western blot; assay type: cell-based, human; settings: Nutlin-3 at different concentrations
Description: Doxorubicin-treated senescent cells (SnCs) grown in the 6-well plate of Example 1 and non-senescent cells (non-SnCs) were treated with different concentrations of Nutlin-3, and then, dissolved in RIPA buffer (Thermo Fisher Scientific, 89901) supplemented with protease inhibitor cocktail (Roche, 11697498001, Basel, Switzerland). The protein concentration of cells was quantified using BCA assay (Pierce, 23227, Waltham, USA). The same amount of protein was separated by SDS-PAGE in a 10-12% polyacrylamide gel and transferred to a polyvinylidene difluoride (PVDF) membrane. Then, the PVDF membrane was blocked with 5% skim milk powder in buffer for 1 hour, and anti-p53 (1: 500, Santa Cruz Biotechnology, SC-126) and anti-β-actin (1: 2000, Abcam, ab8226) antibodies were added thereto, incubated overnight at 4° C., and then incubated with horseradish peroxidase-conjugated anti-mouse IgG (1: 5000, Cell Signaling, 7076S) antibodies. The immunoreactive proteins were then visualized using a chemiluminescent substrate (Amersham, RDN2232, Little Chalfont, UK) and quantified with a densitometer using ImageJ software (NIH, USA). All experiments were repeated at least three times.

[2] = system: senescent cells of the retinal tissue; test: Senescent cell killing in vivo, SA-β-gal staining of retinal tissue; settings: 20 ng/μl Nutlin-3 intravitreal, 2 injections, Dox or Alu RNA induced mice
Description: Anterior eyeballs were dissected in cold PBS.

retinal tissue [3] = test: Lesion mitigation in vivo, color fundus and fundus autofluorescence images; settings: 20 ng/μl Nutlin-3 intravitreal, senescence-induced mice
Description: (§1) After dilation of the eye with TRC-50 IX camera (Topcon, Tokyo, Japan) connected to a digital imaging system (Nikon, Japan) and HRA2 (Heidelberg Engineering, Heidelberg, Germany), the color fundus image and fundus autofluorescence image of the eye of the mice were each captured. […] In addition, in order to identify the cell tissue alignment state, ZO-1 expression was confirmed. Specifically, after blocking the retinal tissue with 1% BSA in PBS for 1 hour, fixed tissue or cells were incubated with primary antibody against ZO-1 (1:250, Invitrogen) overnight at 4° C. Stained tissues or cells were washed twice with PBS for 5 minutes and incubated with Alexa Fluor-conjugated secondary antibody for 2 hours at room temperature. As the secondary antibody, Alexa Fluor 555-conjugated goat anti-mouse IgG (Thermo Fisher Scientific, A-11029, Waltham, USA), Alexa Fluor 488-conjugated goat anti-mouse IgG (Thermo Fisher Scientific, A-21424), Alexa Fluor 555-conjugated goat anti-rabbit IgG (Thermo Fisher Scientific, A-21424), or Alexa Fluor 488-conjugated \u200b\u200b goat anti-rabbit IgG (Thermo Fisher Scientific, A-11034) was used. All secondary antibodies were used after being diluted at the ratio of 1:1000. […]

ZO-1 = test: Cell tissue alignment state in vivo, ZO-1 expression; settings: 20 ng/μl Nutlin-3 intravitreal, senescence-induced mice
Description: as §1

retinal tissue [4] = test: Drusen and Bruch's membrane thickness in vivo by TEM after Nutlin-3; design: species or system mice; settings: doxorubicin and Nutlin-3 group
Description: The eyeball of mice in a group injected with a vehicle alone as in Example 9, a group injected with doxorubicin and a vehicle, and a group injected with doxorubicin and Nutlin-3, were fixed with a solution including 2% glutaraldehyde and 3.75% sucrose in 0.1 M sodium phosphate buffer (pH 7.0) for 30 minutes, and washed three times with 0.1 M PBS including 3.75% sucrose for 30 minutes to prepare a sample for TEM. The eye was fixed with a solution including 0.1% osmium tetraoxide and 5% sucrose in 0.05 M sodium phosphate buffer (pH 7.0) for 1 hour and rinsed three times with distilled water. The sample was then dehydrated in a series of acetone solutions (step 20%), which are graded, and embedded in an epoxy resin. The resin was polymerized at 70° C. for 12 hours. Ultra-thin sections (100 nm) were obtained using RMC CR-X ultra microtomes and then images thereof were obtained using a JEOL JEM-1400 electron microscope. The thickness of the Bruch's membrane was measured using TEM. The average thickness of the Bruch's film was determined by measuring the thicknesses in the nine images of respective groups, and the results are shown in FIGS. 16 and 17.

retinal tissue [5] = test: Lesion alleviation in vivo with combination, fundus autofluorescence image; settings: senescence-induced mice of Example 12
Description: Under an optical microscope (Olympus SZ51, Tokyo, Japan), a small hole was made in the limbus using a 30-gage sterile needle (BD Science, San Jose, USA). Then, a blunt 35-gage Hamilton microsyringe (Hamilton Company, NV, USA) was slowly inserted through the hole. After injecting 1 uL of 100 ng/μl Dox or 1.4 μg/μl Alu RNA into the subretinal space of C57BL/6N or C57BL/6J mice for 7 days, 20 ng/μl Nutlin-3 (#SML0580, St. Louis, USA) or vehicle (0.4% DMSO in normal saline) was administered to the retina on day 0 and day 3, and 50 mg/kg of Nutlin-3 and 100 mg/kg of nicotinamide were mixed at the ratio of 1:2 and the mixture was administered orally through the feeding needle catheter every day for 3 days.
After dilation of the eye with TRC-50 IX camera (Topcon, Tokyo, Japan) connected to a digital imaging system (Nikon, Japan) and HRA2 (Heidelberg Engineering, Heidelberg, Germany), the fundus autofluorescence image of the eye of the mice was captured.

ZO-1 or APOE = test: ZO-1 and drusen marker APOE expression in vivo with combination; settings: senescence-induced mice of Example 12
Description: In addition, the expression of ZO-1 and the expression of the drusen marker APOE were confirmed to identify the cell tissue alignment state. Specifically, after blocking the retinal tissue with 1% BSA in PBS for 1 hour, fixed tissue or cells were incubated with primary antibody (1:50, Santa Cruz Biotechnology) against ZO-1 (1:250, Invitrogen) or APOE overnight at 4° C. Stained tissues or cells were washed twice with PBS for 5 minutes and incubated with Alexa Fluor-conjugated secondary antibody for 2 hours at room temperature. As the secondary antibody, Alexa Fluor 555-conjugated goat anti-mouse IgG (Thermo Fisher Scientific, A-11029, Waltham, USA), Alexa Fluor 488-conjugated goat anti-mouse IgG (Thermo Fisher Scientific, A-21424), Alexa Fluor 555-conjugated goat anti-rabbit IgG (Thermo Fisher Scientific, A-21424), or Alexa Fluor 488-conjugated \u200b\u200b goat anti-rabbit IgG (Thermo Fisher Scientific, A-11034) was used. All secondary antibodies were used after being diluted at the ratio of 1:1000. After incubation with the secondary antibody, tissues or cells were stained with nuclear dye DAPI (1:4000, Thermo Fisher Scientific, 62248) or Hoechst 33342 (1:3000, Thermo Fisher Scientific, H3570) in PBS for 15 minutes at room temperature. Thereafter, the tissues were then fixed in a fixing media (Ployscience, 18606-20, PA, USA).

ARPE-19 cells = test: Induction of senescent cells by doxorubicin, SA-β-gal staining; assay type: cell-based, human; settings: 250 nM doxorubicin, 3 days
Description: ARPE-19, a human retinal pigment epithelium (RPE) cell line, was induced into senescent cells using doxorubicin (Dox), which is used to form peroxide anions, induce DNA damage, and induce cell aging.
ARPE-19 cells were obtained from American Type Culture Collection (ATCC, CRL-2302, Va., U.S.A.), and cultured using a Dulbecco's modified Eagle's medium/nutrient mixture F-12 (WellGene, LM 002-04, Korea) supplemented with 10% fetal bovine serum (Invitrogen 16000, Waltham, U.S.A.) and penicillin-streptomycin (pen/strep, WellGene, LS 202-02) in a humidifying incubator having 5% CO2 at the temperature of 37° C. Cells were used after the cells were subcultured to 15-25 passages and reached the density population of about 70%-about 80%.
The cultured ARPE-19 cells were seeded in 24- or 6-well plates at a density of 25,000 or 100,000 cells per well prior to inducing cell aging with doxorubicin (Dox, Tocris Bioscience #2252, Bristol, UK). After 24 hours, 250 nM doxorubicin was added and the cells were incubated for another 3 days. After 3 days, the cells were placed in a doxorubicin-free medium and the medium was replaced daily. On day 10, senescent cells (SnCs) that were treated with doxorubicin and non-senescent cells (non-SnCs) that were not treated with doxorubicin but replaced with medium alone were seeded into 24- or 6-well plates for further experiments. […]

retinal tissue [6] = test: Drusen and Bruch's membrane thickness by TEM after senescence induction with doxorubicin; assay type: in vivo, mice; settings: 100 ng/μl Dox subretinal
Description: Under an optical microscope (Olympus SZ51, Tokyo, Japan), a small hole was made in the limbus using a 30-gage sterile needle (BD Science, San Jose, USA). Then, a blunt 35-gage Hamilton microsyringe (Hamilton Company, NV, USA) was slowly inserted through the hole. 1 uL of 100 ng/μl Dox or 1.4 μg/μl Alu RNA was injected into the subretinal space of C57BL/6N or C57BL/6J mice for 7 days. In addition, the eye of mice was fixed with a solution including 2% glutaraldehyde and 3.75% sucrose in 0.1 M sodium phosphate buffer (pH 7.0), for 30 minutes, and washed three times with 0.1 M PBS including 3.75% sucrose for 30 minutes to prepare a sample for TEM. The eye was fixed with a solution including 0.1% osmium tetraoxide and 5% sucrose in 0.05 M sodium phosphate buffer (pH 7.0) for 1 hour and rinsed three times with distilled water. The sample was then dehydrated in a series of acetone solutions (step 20%), which were graded, and embedded in an epoxy resin. The resin was polymerized at 70° C. for 12 hours. Ultra-thin sections (100 nm) were obtained using RMC CR-X ultra microtomes and then images thereof were obtained using a JEOL JEM-1400 electron microscope. The thickness of the Bruch's membrane was measured using TEM.

Compound | senescent cells killed compared with non-senescent cells ([1]; 50 uM Nutlin-3, 24 hours) [times] | senescent cells killed compared with non-senescent cells ([1]; 75 uM Nutlin-3, 24 hours) [times] | expression of p53 in senescent cells (p53) | β-galactosidase expression compared to vehicle group [2] | waste in fundus images compared to vehicle group (retinal tissue [3]) | cell tissue alignment (ZO-1) compared to vehicle group (ZO-1) | amount of drusen compared to vehicle-only senescent cells (retinal tissue [4]) | thickness of the Bruch's membrane compared to vehicle-only senescent cells (retinal tissue [4]) | waste in fundus autofluorescence image compared to vehicle group (retinal tissue [5]) | cell tissue alignment state (ZO-1) compared to vehicle group (ZO-1 or APOE) | induction of ARPE-19 cells into senescent cells (SA-β-gal staining) (ARPE-19 cells) | amount of drusen after senescent cell induction (retinal tissue [6]) | thickness of the Bruch's membrane after senescent cell induction (retinal tissue [6])
COc1ccc(C2=N[C@@H](c3ccc(Cl)cc3)[C@@H](c3ccc(Cl)cc3)N2C(=O)N2CCNC(=O)C2)c(OC(C)C)c1 [Nutlin-3] | 7 | 3 | further increased | low | significantly reduced | improved | reduced | reduced | significantly reduced | improved | – | – | –
COc1cccc2c1C(=O)c1c(O)c3c(c(O)c1C2=O)C[C@@](O)(C(=O)CO)C[C@@H]3O[C@H]1C[C@H](N)[C@H](O)[C@H](C)O1 [doxorubicin] | – | – | – | – | – | – | – | – | – | – | induced to senescent cells | increased | increased
